Source: patent publication US12157755B2, “CD73 inhibitor, preparation method therefor and application thereof” (Abbisko Therapeutics Co., Ltd., priority 2019, dated 2024)

Experiments:
CD73 = biological target: T1, CD73 (Homo sapiens, UniProt P21589); assay: In vitro enzymatic activity against CD73 (malachite green test using soluble CD73); type: biochemical; settings: soluble CD73 36 ng/mL, 50 μM AMP, 30 minutes at 25° C.
T1 construct: purchased R&D systems 5795-EN-010
T1 sequence (P21589 27-547 limits assumed): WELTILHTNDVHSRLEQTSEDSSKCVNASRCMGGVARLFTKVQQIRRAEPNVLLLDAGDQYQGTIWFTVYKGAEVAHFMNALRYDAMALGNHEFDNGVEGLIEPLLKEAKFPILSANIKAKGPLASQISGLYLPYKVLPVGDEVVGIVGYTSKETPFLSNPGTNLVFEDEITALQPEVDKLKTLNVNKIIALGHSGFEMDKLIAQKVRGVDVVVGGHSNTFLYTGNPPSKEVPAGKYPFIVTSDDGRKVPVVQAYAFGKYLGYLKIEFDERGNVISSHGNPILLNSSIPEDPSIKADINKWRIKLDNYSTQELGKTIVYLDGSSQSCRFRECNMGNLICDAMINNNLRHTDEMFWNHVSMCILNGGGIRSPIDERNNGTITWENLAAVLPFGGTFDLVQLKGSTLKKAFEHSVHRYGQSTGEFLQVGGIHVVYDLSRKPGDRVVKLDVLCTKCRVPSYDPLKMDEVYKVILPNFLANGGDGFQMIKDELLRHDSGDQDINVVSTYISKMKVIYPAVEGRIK
Description: The malachite green test using soluble CD73, which is synthesized in vitro was used in the present invention to determine the characteristics of inhibitory activity of the compounds against CD73. The specific experimental procedures were as following:
1. The enzyme reaction in this experiment was carried out in 384-well plates, and CD73 (R&D systems #5795-EN-010) at a concentration of 36 ng/mL, the compounds at different concentrations and 50 μM AMP were incubated for 30 minutes at 25° C. in a 40 uL reaction system (consisting of 25 mM Tris pH 7.5, 5 mM MgCl2, and 0.005% Tween-20);
2. Then, 10 μL of malachite green solution (Sigma) was added to each well to terminate the reaction;
3. The concentration of resulting inorganic phosphate was determined according to the instructions of the reagent manufacturer;
4. The enzymatic activity of CD73 was calculated based on the concentration of the product, and then IC50 values were determined by non-linear regression analysis of the inhibition percentage of the compounds of the present invention at different concentrations.

[1] = biological target: T2, CD73 enzymatic activity expressed on the cell surface of MDA-MB-231 cells (Homo sapiens, UniProt P21589); assay: Inhibition of CD73 enzymatic activity on the cell surface (Cell Titer Glo (CTG) experiment), MDA-MB-231 cells; type: cell-based; settings: MDA-MB-231 cells endogenously expressing CD73, AMP, 37° C. for 2 hours, CTG readout; read-out: Cellular activity IC50
T2 construct: Human breast cancer cells MDA-MB-231 that endogenously express CD73 were used; host or cells: MDA-MB-231
T2 sequence (P21589 27-549): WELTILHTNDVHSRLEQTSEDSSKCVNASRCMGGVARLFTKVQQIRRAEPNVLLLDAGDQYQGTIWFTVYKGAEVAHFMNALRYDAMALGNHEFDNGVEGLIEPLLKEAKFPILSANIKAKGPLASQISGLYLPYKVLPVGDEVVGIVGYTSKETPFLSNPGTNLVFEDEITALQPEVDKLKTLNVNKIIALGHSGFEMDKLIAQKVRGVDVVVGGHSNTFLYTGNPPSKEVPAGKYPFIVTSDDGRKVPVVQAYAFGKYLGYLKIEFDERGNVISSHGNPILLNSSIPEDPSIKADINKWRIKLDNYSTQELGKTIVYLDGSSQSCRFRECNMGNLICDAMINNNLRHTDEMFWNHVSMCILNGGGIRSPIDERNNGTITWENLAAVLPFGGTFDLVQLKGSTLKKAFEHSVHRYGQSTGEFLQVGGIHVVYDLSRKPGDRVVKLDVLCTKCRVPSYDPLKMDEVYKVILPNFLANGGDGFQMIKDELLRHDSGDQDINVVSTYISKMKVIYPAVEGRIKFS
Description: Human breast cancer cells MDA-MB-231 that endogenously express CD73 were used in the present invention to evaluate the inhibition of the compound against the CD73 enzymatic activity expressed on the cell surface. The cells used were from the Cell Bank of the Chinese Academy of Sciences. The specific experimental procedures were as follows:
1. Before the test, MDA-MB231 cells were seeded to a 96-well plate at 20000 cells/well;
2. In RPMI1640, 10% fetal bovine serum (Gibco, 10099-141), placed in a 5% CO2 incubator at 37° C. overnight (the cells were washed three times by using a serum-free RPMI medium right before the test):
3. 50 μl of serum-free media containing the compounds at different concentrations were added to the cells and incubated for 15 minutes;
4. 25 μL of 1.2 mM AMP was added for incubation at 37° C. for 2 hours, 25 μL of supernatant was then collected from the cells and mix with 25 μL of 100 μM ATP, and then the concentration of AMP in the samples was determined by CTG (Promega, #G7573);
5. Then, a reduction ratio of the substrate AMP level in the cell culture supernatant collected after the reaction was quantitatively determined to evaluate the inhibitory effects of the examples of the present invention and the positive compounds against the CD73 enzymatic activity on the cell surface;
6. Finally, the concentration of the compound leading to half maximal inhibition of enzymatic activity (IC50) was determined using a four-parameter non-linear logistic model curve fit in Graphpad Prism.

IC50 (CD73)	IC50 [1]	Structure (SMILES)
21.7 nM	0.63 nM	O=P(O)(O)CP(=O)(O)OC[C@H]1C[C@@H](c2ccc3c(N[C@@H]4CCc5ccc(C(F)(F)F)cc54)nc(Cl)nn23)[C@H](O)[C@@H]1O [Example 36, (((((1R,2R,3S,4S)-4-(2-chloro-4-(((R)-6-(trifluoromethyl)-2,3-dihydro-1H-inden-1-yl)amino)pyrrolo[2,1-f][1,2,4]triazin-7-yl)-2,3-dihydroxycyclopentyl)methoxy)(hydroxy)phosphoryl)methyl)phosphonic acid]
31.6 nM	0.99 nM	C[C@@H](Nc1cc(Cl)nc2c1cnn2[C@@H]1O[C@H](COP(=O)(O)CP(=O)(O)O)[C@@H](O)[C@H]1O)c1ccc(S(F)(F)(F)(F)F)cc1F [Example 11, (((((2R,3S,4R,5R)-5-(6-chloro-4-(((R)-1-(2-fluoro-4-(pentafluoro-λ^6-sulfanyl)phenyl)ethyl)amino)-1H-pyrazolo[3,4-b]pyridin-1-yl)-3,4-dihydroxytetrahydrofuran-2-yl)methoxy)(hydroxy)phosphoryl)methyl) phosphonic acid]
1.6 nM	0.722 nM	C[C@@H](Nc1nc(Cl)nc2c1cnn2[C@@H]1O[C@H](COP(=O)(O)CP(=O)(O)O)[C@@H](O)[C@H]1O)c1ccc(S(F)(F)(F)(F)F)cc1F [Example 3, (((((2R,3S,4R,5R)-5-(6-chloro-4-(((R)-1-(2-fluoro-4-(pentafluoro-λ^6-sulfanyl)phenyl)ethyl)amino)-1H-pyrazolo[3,4-d]pyrimidin-1-yl)-3,4-dihydroxytetrahydrofuran-2-yl)methoxy)(hydroxy)phosphoryl)methyl)phosphonic acid]
0.34 nM	0.176 nM	O=P(O)(O)CP(=O)(O)OC[C@H]1O[C@@H](n2ncc3c(N[C@@H]4CCc5cc(F)ccc54)cc(Cl)nc32)[C@H](O)[C@@H]1O [Example 16, (((((2R,3S,4R,5R)-5-(6-chloro-4-(((R)-5-fluoro-2,3-dihydro-1H-inden-1-yl)amino)-1H-pyrazolo[3,4-b]pyridin-1-yl)-3,4-dihydroxytetrahydrofuran-2-yl)methoxy)(hydroxy)phosphoryl)methyl)phosphonic acid]
> 1000 nM	60 nM	O=P(O)(O)CP(=O)(O)OC[C@H]1C[C@@H](c2ccc3c(N[C@H]4CCc5cc(Cl)ccc54)nc(Cl)nn23)[C@H](O)[C@@H]1O [Example 37, (((((1R,2R,3S,4S)-4-(2-chloro-4-(((S)-5-chloro-2,3-dihydro-1H-inden-1-yl)amino)pyrrolo[2,1-f][1,2,4]triazin-7-yl)-2,3-dihydroxycyclopentyl)methoxy)(hydroxy)phosphoryl)methyl)phosphonic acid]
20.6 nM	0.73 nM	C[C@H](Nc1nc(Cl)nc2c1cnn2[C@@H]1O[C@H](COP(=O)(O)CP(=O)(O)O)[C@@H](O)[C@H]1O)c1ccc(S(F)(F)(F)(F)F)cc1 [Example 2, (((((2R,3S,4R,5R)-5-(6-chloro-4-(((S)-1-(4-(pentafluoro-λ^6-sulfanyl)phenyl)ethyl)amino)-1H-pyrazolo[3,4-d]pyrimidin-1-yl)-3,4-dihydroxytetra-hydrofuran-2-yl)methoxy)(hydroxy)phosphoryl)methyl)phosphonic acid]
0.32 nM	0.14 nM	O=P(O)(O)CP(=O)(O)OC[C@H]1O[C@@H](n2ncc3c(N[C@@H]4CCc5ccc(F)cc54)cc(Cl)nc32)[C@H](O)[C@@H]1O [Example 17, (((((2R,3S,4R,5R)-5-(6-chloro-4-(((R)-6-fluoro-2,3-dihydro-1H-inden-1-yl)amino)-1H-pyrazolo[3,4-b]pyridin-1-yl)-3,4-dihydroxytetrahydrofuran-2-yl)methoxy)(hydroxy)phosphoryl)methyl)phosphonic acid]
5.5 nM	0.55 nM	O=P(O)(O)CP(=O)(O)OC[C@H]1C[C@@H](c2ccc3c(N[C@@H]4CCc5ccccc54)nc(Cl)nn23)[C@H](O)[C@@H]1O [Example 25, (((((1R,2R,3S,4S)-4-(2-chloro-4-(((R)-2,3-dihydro-1H-inden-1-yl)amino)pyrrolo[2,1-f][1,2,4]triazin-7-yl)-2,3-dihydroxycyclopentyl)methoxy)(hydroxy)phosphoryl)methyl)phosphonic acid]
63 nM	0.743 nM	O=P(O)(O)CP(=O)(O)OC[C@H]1C[C@@H](c2ccc3c(N[C@@H]4CCc5cc(C(F)(F)F)ccc54)nc(Cl)nn23)[C@H](O)[C@@H]1O [Example 39, (((((1R,2R,3S,4S)-4-(2-chloro-4-(((R)-5-(trifluoromethyl)-2,3-dihydro-1H-inden-1-yl)amino)pyrrolo[2,1-f][1,2,4]triazin-7-yl)-2,3-dihydroxycyclopentyl)methoxy)(hydroxy)phosphoryl)methyl)phosphonic acid]
0.71 nM	0.27 nM	O=P(O)(O)CP(=O)(O)OC[C@H]1O[C@@H](n2ncc3c(N[C@@H]4CCc5ccc(C(F)(F)F)cc54)cc(Cl)nc32)[C@H](O)[C@@H]1O [Example 20, (((((2R,3S,4R,5R)-5-(6-chloro-4-(((R)-6-(trifluoromethyl)-2,3-dihydro-1H-inden-1-yl)amino)-1H-pyrazolo[3,4-b]pyridin-1-yl)-3,4-dihydroxytetrahydrofuran-2-yl)methoxy)(hydroxy)phosphoryl)methyl)phosphonic acid]
7.8 nM	0.266 nM	O=P(O)(O)CP(=O)(O)OC[C@H]1C[C@@H](c2ccc3c(N[C@@H]4CCc5cc(Cl)ccc54)nc(Cl)nn23)[C@H](O)[C@@H]1O [Example 38, (((((1R,2R,3S,4S)-4-(2-chloro-4-(((R)-5-chloro-2,3-dihydro-1H-inden-1-yl)amino)pyrrolo[2,1-f][1,2,4]triazin-7-yl)-2,3-dihydroxycyclopentyl)methoxy)(hydroxy)phosphoryl)methyl)phosphonic acid]
4.8 nM	1.45 nM	C[C@@H](Nc1cc(Cl)nc2c1cnn2[C@@H]1O[C@H](COP(=O)(O)CP(=O)(O)O)[C@@H](O)[C@H]1O)c1cccc(S(F)(F)(F)(F)F)c1 [Example 9, (((((2R,3S,4R,5R)-5-(6-chloro-4-(((R)-1-(3-(pentafluoro-λ^6-sulfanyl)phenyl)ethyl)amino)-1H-pyrazolo[3,4-b]pyridin-1-yl)-3,4-dihydroxytetrahydrofuran-2-yl)methoxy)(hydroxy)phosphoryl)methyl) phosphonic acid]
